This note sets out measurements from patent US7799809B2, “Carboxamide compounds and their use as calpain inhibitors” (Abbott GmbH & Co. KG, priority 2006, dated 2010).

One experiment deals with T1, cathepsin L (Homo sapiens, UniProt P07711).
T1 construct: cathepsin L—isolated from human liver (Calbiochem #219402); purchased Calbiochem 219402; host or cells: human liver (tissue-derived)
T1 sequence (P07711 114-333): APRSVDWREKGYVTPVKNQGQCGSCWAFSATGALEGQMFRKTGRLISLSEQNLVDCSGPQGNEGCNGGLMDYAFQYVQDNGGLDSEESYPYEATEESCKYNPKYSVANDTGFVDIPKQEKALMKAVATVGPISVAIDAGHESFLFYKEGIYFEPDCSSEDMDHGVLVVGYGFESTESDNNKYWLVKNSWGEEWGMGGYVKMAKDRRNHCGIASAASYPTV
Put plainly: Cathepsin L enzyme inhibition in vitro (kinetic fluorescence assay). Conditions: cathepsin L isolated from human liver vs calpain I. The format is biochemical. Here is the method: (§1) The following solutions and buffers were employed: • HBS (for 40 ml): 800 μl M HEPES; 2.16 ml 100 mM KCl; 4.8 ml 1M NaCl; 3.59 ml 5% glucose; 60 μl μM MgSO4; 400 μl 100 mM Na pyruvate, 28.19 ml water; pH 7.2-7.5. • lysis buffer (for 20 ml): 400 μl M Tris pH 8.2; 2.74 ml 1M NaCl; 520 μl 0.5M EDTA; 2 ml 10% triton X-100; 0.8 ml (=1:25) CompletePlus (1 tablet/2 ml H2O); 200 μl 100 mM Pefabloc; 13.34 ml water, pH 8.2. • TBST (10×) (for 1 l): 100 mM Tris (12.1 g); 1.5M NaCl (87 g); 1% Tween 20 (10 g), adjusted to pH 8. I Enzyme Inhibition In Vitro: • Testing for blockade of the corresponding enzymic activities was carried out by means of kinetic fluorescence assays (excitation 390 nm, emission 460 nm). • Apparent Ki values were calculated from the experimentally determined IC50 values by the Cheng-Prussoff relation assuming a reversible competitive enzyme inhibition. The Km values of the substrates used under the assay conditions indicated above were: 90 μM (Z-Phe-Arg-AMC, cathepsin B), 10 μM (Z-Gly-Pro-Arg-AMC, cathepsin K), 2 μM (Z-Phe-Arg-AMC, cathepsin L), and 30 μM (Z-Val-Val-Arg-AMC, cathepsin S). • The indicated Ki values are averages of the inhibition constants calculated on the basis of 2 to 4 independent dose-effect plots.
(§2) The following assays were used: • 1. Calpain I: • 20 nM calpain-I—isolated from human erythrocytes (Calbiochem #208713), 100 μM Suc-Leu-Tyr-AMC (Bachem #1-1355) as substrate in buffer with 62 mM imidazole, 0.3 mM CaCl2, 0.10% CHAPS, 0.05% BSA, 1 mM DTT at pH 7.3 and room temperature. • 2. Cathepsin B: • 0.25 nM cathepsin B—isolated from human liver (Calbiochem #219362), 100 μM Z-Phe-Arg-AMC (Bachem #I-1160) as substrate 50 mM MES, 2 mM EDTA, 0.05% Brij 35, 2.5 mM L-cysteine, pH 6.0, room temperature. • 3. Cathepsin K: • 3 nM cathepsin K—activated from recombinant human procathepsin K from E. coli (Calbiochem #342001), 10 μM Z-Gly-Pro-Arg-AMC (Biomol #P-142) as substrate in 50 mM MES, 2 mM EDTA, 0.05% Brij 35, 2.5 mM L-cysteine, pH 6.0, room temperature. • 4. Cathepsin L: • 1 nM cathepsin L—isolated from human liver (Calbiochem #219402), 2 μM Z-Phe-Arg-AMC (Bachem #1-1160) as substrate in 50 mM MES, 2 mM EDTA, 0.05% Brij 35, 2.5 mM L-cysteine, pH 6.0, room temperature. • 5. Cathepsin S: • 0.5 nM recombinant human cathepsin S from E. coli (Calbiochem #219343), 20 μM Z-Val-Val-Arg-AMC (Bachem #1-1540) as substrate in 50 mM MES, 2 mM EDTA, 0.05% Brij 35, 2.5 mM L-cysteine, pH 6.0, room temperature. • The results of the in vitro determination are indicated in Table 1. The following abbreviations are used in Table 1: • The “Calpain activity” column, ++ stands for a calpain Ki (Ki(calpain)) of ≦40 nM and + means: 40 nM<Ki(Calpain)≦100 nM. • The “Sel. cat. B” column indicates the Ki(cathepsin B)/Ki(calpain) ratio. In this connection, ++ means a Ki(cathepsin B)/Ki(calpain) ratio of ≧30 and + means 10≦Ki(cathepsin B)/Ki(calpain)<30. • The “Sel. cat. K” column indicates the Ki(cathepsin K)/Ki(calpain) ratio. In this connection, ++ means a Ki(cathepsin K)/Ki(calpain) ratio of ≧30 and + means 10≦Ki(cathepsin K)/Ki(calpain)<30. • The “Sel. cat. L” column indicates the Ki(cathepsin L)/Ki(calpain) ratio. In this connection, ++ means a Ki(cathepsin L)/Ki(calpain) ratio of ≧50 and + means 30≦Ki(cathepsin L)/Ki(calpain)<50. • The “Sel. cat. S” column indicates the Ki(cathepsin S)/Ki(calpain) ratio. In this connection, ++ means a Ki(cathepsin S)/Ki(calpain) ratio of ≧100 and + means 50≦Ki(cathepsin S)/Ki(calpain)<100.
As for `CCCCC(NC(=O)c1cccnc1-n1cnc(-c2ccccc2)c1)C(=O)C(N)=O` (stereo not drawn) [Example 2, N-{1-[Amino(oxo)acetyl]pentyl}-2-(4-phenyl-1H-imidazol-1-yl)nicotinamide], the “Sel cat. L: Ki(cathepsin L)/Ki(calpain) ratio” value is on record as “++ (++ means a Ki(cathepsin L)/Ki(calpain) ratio of ≧50)”.

Take `CCCCC(NC(=O)c1cc(Cl)cnc1-n1cnc(-c2ccccc2)c1)C(=O)C(N)=O.Cl` (stereo not drawn) [Example 24, N-{1-[Amino(oxo)acetyl]pentyl}-5-chloro-2-(4-phenyl-1H-imidazol-1-yl)nicotinamide hydrochloride]: the “Sel cat. L: Ki(cathepsin L)/Ki(calpain) ratio” value is on record as “+ (+ means 30≦Ki(cathepsin L)/Ki(calpain)<50)”.

The target of a further experiment is T2, cathepsin S (Homo sapiens, UniProt P25774).
T2 construct: purchased Calbiochem 219343; host or cells: E. coli
T2 sequence (P25774 115-331): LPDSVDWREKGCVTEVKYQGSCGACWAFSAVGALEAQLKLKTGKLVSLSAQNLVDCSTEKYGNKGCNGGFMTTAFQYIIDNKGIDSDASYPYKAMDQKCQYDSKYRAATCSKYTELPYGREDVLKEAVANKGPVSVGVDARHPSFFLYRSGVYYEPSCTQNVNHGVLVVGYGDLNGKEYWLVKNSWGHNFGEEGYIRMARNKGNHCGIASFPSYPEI
Nature of the experiment: Cathepsin S enzyme inhibition in vitro (kinetic fluorescence assay). The format is biochemical. Conditions: recombinant human cathepsin S vs calpain I. Here is the method: as §1, §2
On to `CCCCC(NC(=O)c1cccnc1-n1ccc(-c2ccccc2)n1)C(=O)C(N)=O` (stereo not drawn) [Example 6, N-{1-[Amino(oxo)acetyl]pentyl}-2-(3-phenyl-1H-pyrazol-1-yl)nicotinamide], for which the “Sel cat. S: Ki(cathepsin S)/Ki(calpain) ratio” value is reported as “+ (+ means 50≦Ki(cathepsin S)/Ki(calpain)<100)”.

As for `NC(=O)C(=O)C(Cc1ccccc1)NC(=O)c1cccnc1-n1cnc(-c2ccc(N3CCOCC3)cc2)c1` (stereo not drawn) [Example 14, N-(3-Amino-1-benzyl-2,3-dioxopropyl)-2-[4-(4-morpholin-4-ylphenyl)-1H-imidazol-1-yl]nicotinamide], the “Sel cat. S: Ki(cathepsin S)/Ki(calpain) ratio” value is given as “++ (++ means a Ki(cathepsin S)/Ki(calpain) ratio of ≧100)”.

With `CCN(CC)c1ccc(-c2ccn(-c3ncccc3C(=O)NC(Cc3ccccc3)C(=O)C(N)=O)n2)cc1` (stereo not drawn) [Example 42, N-(3-Amino-1-benzyl-2,3-dioxopropyl)-2-{3-[4-(diethylamino)phenyl]-1H-pyrazol-1-yl}nicotinamide], the “Sel cat. S: Ki(cathepsin S)/Ki(calpain) ratio” value is listed as “++ (++ means a Ki(cathepsin S)/Ki(calpain) ratio of ≧100)”.

Regarding `CCN(CC)Cc1ccc(-c2ccn(-c3ncccc3C(=O)NC(Cc3ccccc3)C(=O)C(N)=O)n2)cc1.Cl` (stereo not drawn) [Example 43, N-(3-Amino-1-benzyl-2,3-dioxopropyl)-2-(3-{4-[(diethylamino)methyl]phenyl}-1H-pyrazol-1-yl)nicotinamide hydrochloride], the “Sel cat. S: Ki(cathepsin S)/Ki(calpain) ratio” value is listed as “++ (++ means a Ki(cathepsin S)/Ki(calpain) ratio of ≧100)”.

For the compound `CCCCC(NC(=O)c1cccnc1-n1ccc(-c2ccc(CN(CC)CC)cc2)n1)C(=O)C(N)=O` (stereo not drawn) [Example 44, N-{1-[Amino(oxo)acetyl]pentyl}-2-(3-{4-[(diethylamino)methyl]phenyl}-1H-pyrazol-1-yl)nicotinamide], the “Sel cat. S: Ki(cathepsin S)/Ki(calpain) ratio” value is on record as “+ (+ means 50≦Ki(cathepsin S)/Ki(calpain)<100)”.

For the compound `CCCCC(NC(=O)c1cccnc1-n1ccc(-c2ccc(CN3CCOCC3)cc2)n1)C(=O)C(N)=O` (stereo not drawn) [Example 45, N-{1-[Amino(oxo)acetyl]pentyl}-2-{3-[4-(morpholin-4-ylmethyl)phenyl]-1H-pyrazol-1-yl}nicotinamide], the “Sel cat. S: Ki(cathepsin S)/Ki(calpain) ratio” value is reported as “+ (+ means 50≦Ki(cathepsin S)/Ki(calpain)<100)”.

For `NC(=O)C(=O)C(Cc1ccccc1)NC(=O)c1cccnc1-n1ccc(-c2ccc(CN3CCOCC3)cc2)n1` (stereo not drawn) [Example 46, N-(3-Amino-1-benzyl-2,3-dioxopropyl)-2-{3-[4-(morpholin-4-ylmethyl)phenyl]-1H-pyrazol-1-yl}nicotinamide], the “Sel cat. S: Ki(cathepsin S)/Ki(calpain) ratio” value is reported as “++ (++ means a Ki(cathepsin S)/Ki(calpain) ratio of ≧100)”.

Take `CCCCC(NC(=O)c1cccnc1-n1ccc(-c2ccc(N(CC)CC)cc2)n1)C(=O)C(N)=O` (stereo not drawn) [Example 47, N-{1-[Amino(oxo)acetyl]pentyl}-2-{3-[4-(diethylamino)phenyl]-1H-pyrazol-1-yl}nicotinamide]: the “Sel cat. S: Ki(cathepsin S)/Ki(calpain) ratio” value is listed as “++ (++ means a Ki(cathepsin S)/Ki(calpain) ratio of ≧100)”.

Take `Cl.NC(=O)C(=O)C(Cc1ccccc1)NC(=O)c1cccnc1-n1ccc(-c2cccc(CN3CCOCC3)c2)n1` (stereo not drawn) [Example 52, N-(3-Amino-1-benzyl-2,3-dioxopropyl)-2-{3-[3-(morpholin-4-ylmethyl)phenyl]-1H-pyrazol-1-yl}nicotinamide hydrochloride]: the “Sel cat. S: Ki(cathepsin S)/Ki(calpain) ratio” value is listed as “++ (++ means a Ki(cathepsin S)/Ki(calpain) ratio of ≧100)”.

As to `NC(=O)C(=O)C(Cc1ccccc1)NC(=O)c1cccnc1-n1ccc(-c2ccncc2)n1` (stereo not drawn) [Example 65, N-(3-Amino-1-benzyl-2,3-dioxopropyl)-2-(3-pyridin-4-yl-1H-pyrazol-1-yl)nicotinamide], the “Sel cat. S: Ki(cathepsin S)/Ki(calpain) ratio” value is listed as “++ (++ means a Ki(cathepsin S)/Ki(calpain) ratio of ≧100)”.

For the compound `NC(=O)C(=O)C(Cc1ccccc1)NC(=O)c1cccnc1-n1ccc(-c2ccc(-n3ccnc3)cc2)n1` (stereo not drawn) [Example 101, N-[3-Amino-2,3-dioxo-1-(phenylmethyl)propyl]-2-{3-[4-(1H-imidazol-1-yl)phenyl]-1H-pyrazol-1-yl}pyridine-3-carboxamide], the “Sel cat. S: Ki(cathepsin S)/Ki(calpain) ratio” value was “++ (++ means a Ki(cathepsin S)/Ki(calpain) ratio of ≧100)”.

For the compound `NC(=O)C(=O)C(Cc1ccccc1)NC(=O)c1cccnc1-n1cc(-c2ccccc2F)cn1` (stereo not drawn) [Example 104, N-[3-Amino-2,3-dioxo-1-(phenylmethyl)propyl]-2-[4-(2-fluorophenyl)-1H-pyrazol-1-yl]pyridine-3-carboxamide], the “Sel cat. S: Ki(cathepsin S)/Ki(calpain) ratio” value was “+ (+ means 50≦Ki(cathepsin S)/Ki(calpain)<100)”.

In the case of `NC(=O)C(=O)C(Cc1ccccc1)NC(=O)c1cccnc1-n1cc(CCN2CCOCC2)c(-c2ccc(F)cc2)n1` (stereo not drawn) [Example 165, N-[3-Amino-2,3-dioxo-1-(phenylmethyl)propyl]-2-[3-(4-fluorophenyl)-4-(2-morpholin-4-ylethyl)-1H-pyrazol-1-yl]pyridine-3-carboxamide], the “Sel cat. S: Ki(cathepsin S)/Ki(calpain) ratio” value is “++ (++ means a Ki(cathepsin S)/Ki(calpain) ratio of ≧100)”.

In the case of `CN(C)Cc1cn(-c2ncccc2C(=O)NC(Cc2ccccc2)C(=O)C(N)=O)nc1-c1cccc(C(F)(F)F)c1` (stereo not drawn) [Example 176, N-[3-Amino-2,3-dioxo-1-(phenylmethyl)propyl]-2-{4-[(dimethylamino)methyl]-3-[3-(trifluoromethyl)phenyl]-1H-pyrazol-1-yl}pyridine-3-carboxamide], the “Sel cat. S: Ki(cathepsin S)/Ki(calpain) ratio” value is “++ (++ means a Ki(cathepsin S)/Ki(calpain) ratio of ≧100)”.

For the compound `NC(=O)C(=O)C(Cc1ccccc1)NC(=O)c1cccnc1-n1cc(CN2CCOCC2)c(-c2cccc(C(F)(F)F)c2)n1` (stereo not drawn) [Example 177, N-[3-Amino-2,3-dioxo-1-(phenylmethyl)propyl]-2-{4-(morpholin-4-ylmethyl)-3-[3-(trifluoromethyl)phenyl]-1H-pyrazol-1-yl}pyridine-3-carboxamide], the “Sel cat. S: Ki(cathepsin S)/Ki(calpain) ratio” value was “++ (++ means a Ki(cathepsin S)/Ki(calpain) ratio of ≧100)”.

In the case of `NC(=O)C(=O)C(Cc1ccccc1)NC(=O)c1cccnc1-n1cc(CN2CCCC2)c(-c2cccc(C(F)(F)F)c2)n1` (stereo not drawn) [Example 178, N-[3-Amino-2,3-dioxo-1-(phenylmethyl)propyl]-2-{4-(pyrrolidin-1-ylmethyl)-3-[3-(trifluoromethyl)phenyl]-1H-pyrazol-1-yl}pyridine-3-carboxamide], the “Sel cat. S: Ki(cathepsin S)/Ki(calpain) ratio” value is on record as “++ (++ means a Ki(cathepsin S)/Ki(calpain) ratio of ≧100)”.
